Measured values: US10717716B2, “1,3,4-oxadiazole derivative compounds as histone deacetylase 6 inhibitor, and the pharmaceutical composition comprising the same” (Chong Kun Dang Pharmaceutical Corp., priority 2015, dated 2020)

Target: T1, human recombinant HDAC6 (Homo sapiens, UniProt Q9UBN7)
T1 construct: purchased Calbiochem 382180
T1 sequence (Q9UBN7 1-1215): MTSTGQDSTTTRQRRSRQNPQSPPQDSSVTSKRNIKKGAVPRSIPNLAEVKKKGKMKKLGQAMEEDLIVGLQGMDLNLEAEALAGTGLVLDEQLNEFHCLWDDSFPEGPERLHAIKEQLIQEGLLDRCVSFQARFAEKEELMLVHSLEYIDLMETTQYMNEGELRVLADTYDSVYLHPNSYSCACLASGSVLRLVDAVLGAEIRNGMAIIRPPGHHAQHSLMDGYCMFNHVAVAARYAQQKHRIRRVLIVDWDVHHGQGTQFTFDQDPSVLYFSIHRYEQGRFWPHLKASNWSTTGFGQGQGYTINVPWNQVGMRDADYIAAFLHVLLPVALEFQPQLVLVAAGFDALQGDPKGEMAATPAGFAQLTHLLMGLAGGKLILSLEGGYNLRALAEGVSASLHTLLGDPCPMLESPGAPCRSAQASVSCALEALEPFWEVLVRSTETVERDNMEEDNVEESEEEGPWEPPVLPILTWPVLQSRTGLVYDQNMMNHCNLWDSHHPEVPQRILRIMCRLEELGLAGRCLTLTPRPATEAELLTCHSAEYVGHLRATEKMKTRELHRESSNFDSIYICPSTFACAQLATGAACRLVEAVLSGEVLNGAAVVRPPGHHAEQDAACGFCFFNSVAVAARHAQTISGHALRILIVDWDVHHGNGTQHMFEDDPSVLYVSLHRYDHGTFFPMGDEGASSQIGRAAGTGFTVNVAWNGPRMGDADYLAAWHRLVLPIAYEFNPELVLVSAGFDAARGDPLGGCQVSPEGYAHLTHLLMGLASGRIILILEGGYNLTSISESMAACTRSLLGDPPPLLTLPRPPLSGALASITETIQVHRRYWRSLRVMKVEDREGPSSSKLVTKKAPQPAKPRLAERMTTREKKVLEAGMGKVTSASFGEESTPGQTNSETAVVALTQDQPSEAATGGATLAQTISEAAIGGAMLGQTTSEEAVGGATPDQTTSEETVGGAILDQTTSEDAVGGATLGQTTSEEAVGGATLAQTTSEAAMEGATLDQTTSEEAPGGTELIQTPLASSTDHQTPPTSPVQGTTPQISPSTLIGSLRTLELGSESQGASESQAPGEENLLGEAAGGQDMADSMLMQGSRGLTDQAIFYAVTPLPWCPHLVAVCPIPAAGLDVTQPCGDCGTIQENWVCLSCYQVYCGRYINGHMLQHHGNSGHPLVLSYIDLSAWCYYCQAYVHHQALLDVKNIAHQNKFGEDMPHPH
Assay: HDAC6 enzyme activity inhibition assay (HDAC Fluorimetric Drug Discovery Kit)
Format: biochemical
Conditions: for HDAC6 selectivity (fold): HDAC6 over HDAC1; for IC50: human recombinant HDAC6, same protocol as HDAC1, read-out: HDAC6
Summary of the method: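 Fluorimetric deacetylase assay: 5-fold serial compound dilutions, 0.3 μg recombinant human enzyme (HDAC1 or HDAC6, same protocol), 10 μM Fluor de Lys-SIRT1 substrate, 60 min at 30 °C. Signal developed 30 min, measured at 360/460 nm; IC50 values derived.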

With O=C(N1CCS(=O)(=O)CC1)N(Cc1ccc(-c2nnc(C(F)F)o2)cc1F)c1cccc(OC(F)(F)F)c1 [Compound 21529, N-(4-(5-(difluoromethyl)-1,3,4-oxadiazol-2-yl)-2-fluorobenzyl)-N-(3-(trifluoromethoxy)phenyl)thiomorpholine-4-carboxamide 1,1-dioxide] the “HDAC6 selectivity (fold)” value was 278 fold and the IC50 was 36 nM.
With O=C(N1CCS(=O)(=O)CC1)N(Cc1ccc(-c2nnc(C(F)(F)F)o2)cc1F)c1ccc(F)c(Cl)c1 [Compound 21530, N-(3-chloro-4-fluorophenyl)-N-(2-fluoro-4-(5-(trifluoromethyl)-1,3,4-oxadiazol-2-yl)benzyl)thiomorpholine-4-carboxamide 1,1-dioxide] the “HDAC6 selectivity (fold)” value was 167 fold and the IC50 was 60 nM.
In the case of O=C(N1CCS(=O)(=O)CC1)N(Cc1ccc(-c2nnc(C(F)F)o2)cc1F)c1ccc(F)c(Cl)c1 [Compound 21531, N-(3-chloro-4-fluorophenyl)-N-(4-(5-(difluoromethyl)-1,3,4-oxadiazol-2-yl)-2-fluorobenzyl)thiomorpholine-4-carboxamide 1,1-dioxide], the “HDAC6 selectivity (fold)” value is reported as 769 fold and the IC50 is reported as 13 nM.
In the case of O=C(N1CCOCC1)N(Cc1ncc(-c2nnc(C(F)F)o2)cn1)c1ccccc1 [Compound 21532, N-((5-(5-(difluoromethyl)-1,3,4-oxadiazol-2-yl)pyrimidin-2-yl)methyl)-N-phenylmorpholine-4-carboxamide], the “HDAC6 selectivity (fold)” value is reported as 208 fold and the IC50 is reported as 48 nM.
With CN1CCN(C(=O)N(Cc2ccc(-c3nnc(C(F)F)o3)cc2F)c2cccc(-c3ccccc3)c2)CC1 [Compound 21533, N-([1,1′-biphenyl]-3-yl)-N-(4-(5-(difluoromethyl)-1,3,4-oxadiazol-2-yl)-2-fluorobenzyl)-4-methylpiperazine-1-carboxamide] the “HDAC6 selectivity (fold)” value was 70 fold and the IC50 was 143 nM.
CN1CCN(C(=O)N(Cc2ccc(-c3nnc(C(F)F)o3)cc2F)c2cccc(-c3ccoc3)c2)CC1 [Compound 21534, N-(4-(5-(difluoromethyl)-1,3,4-oxadiazol-2-yl)-2-fluorobenzyl)-N-(3-(furan-3-yl)phenyl)-4-methylpiperazine-1-carboxamide] was tested, and the “HDAC6 selectivity (fold)” value was 175 fold and the IC50 was 57 nM.
CN1CCN(C(=O)N(Cc2ccc(-c3nnc(C(F)F)o3)cc2F)c2cccc(-c3ccncc3)c2)CC1 [Compound 21535, N-(4-(5-(difluoromethyl)-1,3,4-oxadiazol-2-yl)-2-fluorobenzyl)-4-methyl-N-(3-(pyridin-4-yl)phenyl)piperazine-1-carboxamide] was tested, and the “HDAC6 selectivity (fold)” value was 227 fold and the IC50 was 44 nM.
In the case of CN1CCN(C(=O)N(Cc2ccc(-c3nnc(C(F)F)o3)cc2F)c2cccc(-c3cccnc3)c2)CC1 [Compound 21536, N-(4-(5-(difluoromethyl)-1,3,4-oxadiazol-2-yl)-2-fluorobenzyl)-4-methyl-N-(3-(pyridin-3-yl)phenyl)piperazine-1-carboxamide], the “HDAC6 selectivity (fold)” value is reported as 556 fold and the IC50 is reported as 18 nM.
CN1CCN(C(=O)N(Cc2ccc(-c3nnc(C(F)F)o3)cc2F)c2cccc(-c3ccc4c(cnn4C)c3)c2)CC1 [Compound 21537, N-(4-(5-(difluoromethyl)-1,3,4-oxadiazol-2-yl)-2-fluorobenzyl)-4-methyl-N-(3-(1-methyl-1H-indazol-5-yl)phenyl)piperazine-1-carboxamide] was tested, and the “HDAC6 selectivity (fold)” value was 145 fold and the IC50 was 69 nM.
With CN1CCN(C(=O)N(Cc2ccc(-c3nnc(C(F)F)o3)cc2F)c2ccc(-c3cccnc3)cc2)CC1 [Compound 21540, N-(4-(5-(difluoromethyl)-1,3,4-oxadiazol-2-yl)-2-fluorobenzyl)-4-methyl-N-(4-(pyridin-3-yl)phenyl)piperazine-1-carboxamide] the “HDAC6 selectivity (fold)” value was 333 fold and the IC50 was 30 nM.
In the case of CN1CCN(C(=O)N(Cc2ccc(-c3nnc(C(F)F)o3)cc2F)c2ccc(-c3ccncc3)cc2)CC1 [Compound 21541, N-(4-(5-(difluoromethyl)-1,3,4-oxadiazol-2-yl)-2-fluorobenzyl)-4-methyl-N-(4-(pyridin-4-yl)phenyl)piperazine-1-carboxamide], the “HDAC6 selectivity (fold)” value is reported as 156 fold and the IC50 is reported as 64 nM.
For CN1CCN(C(=O)N(Cc2ccc(-c3nnc(C(F)F)o3)cc2F)c2ccc(-c3ccccc3)cc2)CC1 [Compound 21542, N-([1,1′-biphenyl]-4-yl)-N-(4-(5-(difluoromethyl)-1,3,4-oxadiazol-2-yl)-2-fluorobenzyl)-4-methylpiperazine-1-carboxamide], the “HDAC6 selectivity (fold)” value was 164 fold and the IC50 was 61 nM.
In the case of O=C(N1CCS(=O)(=O)CC1)N(Cc1ccc(-c2nnc(C(F)F)o2)cc1F)c1ccc2c(c1)CCO2 [Compound 21544, N-(4-(5-(difluoromethyl)-1,3,4-oxadiazol-2-yl)-2-fluorobenzyl)-N-(2,3-dihydrobenzofuran-5-yl)thiomorpholine-4-carboxamide 1,1-dioxide], the “HDAC6 selectivity (fold)” value is reported as 294 fold and the IC50 is reported as 34 nM.
With Cn1ncc2ccc(N(Cc3ccc(-c4nnc(C(F)F)o4)cc3F)C(=O)N3CCS(=O)(=O)CC3)cc21 [Compound 21546, N-(4-(5-(difluoromethyl)-1,3,4-oxadiazol-2-yl)-2-fluorobenzyl)-N-(1-methyl-1H-indazol-6-yl)thiomorpholine-4-carboxamide 1,1-dioxide] the “HDAC6 selectivity (fold)” value was 476 fold and the IC50 was 21 nM.
In the case of CCN(CC)c1ccc(N(Cc2ccc(-c3nnc(C(F)(F)F)o3)cc2F)C(=O)N2CCS(=O)(=O)CC2)cc1 [Compound 21552, N-(4-(diethylamino)phenyl)-N-(2-fluoro-4-(5-(trifluoromethyl)-1,3,4-oxadiazol-2-yl)benzyl)thiomorpholine-4-carboxamide 1,1-dioxide], the “HDAC6 selectivity (fold)” value is reported as 7 fold and the IC50 is reported as 1520 nM.
CCN(CC)c1ccc(N(Cc2ccc(-c3nnc(C(F)F)o3)cc2F)C(=O)N2CCS(=O)(=O)CC2)cc1 [Compound 21553] was tested, and the “HDAC6 selectivity (fold)” value was 14 fold and the IC50 was 697 nM.
In the case of CN1CCN(C(=O)N(CCc2ccccc2)Cc2ccc(-c3nnc(C(F)F)o3)cc2F)CC1 [Compound 21554, N-(4-(5-(difluoromethyl)-1,3,4-oxadiazol-2-yl)-2-fluorobenzyl)-4-methyl-N-phenethylpiperazine-1-carboxamide], the “HDAC6 selectivity (fold)” value is reported as 65 fold and the IC50 is reported as 155 nM.
For O=C(N1CCOCC1)N(CCc1ccccc1)Cc1ccc(-c2nnc(C(F)F)o2)cc1F [Compound 21555, N-(4-(5-(difluoromethyl)-1,3,4-oxadiazol-2-yl)-2-fluorobenzyl)-N-phenethylmorpholine-4-carboxamide], the “HDAC6 selectivity (fold)” value was 26 fold and the IC50 was 386 nM.
COc1ccccc1CCN(Cc1ccc(-c2nnc(C(F)F)o2)cc1F)C(=O)N1CCN(C)CC1 [Compound 21556, N-(4-(5-(difluoromethyl)-1,3,4-oxadiazol-2-yl)-2-fluorobenzyl)-N-(2-methoxyphenethyl)-4-methylpiperazine-1-carboxamide] was tested, and the “HDAC6 selectivity (fold)” value was 36 fold and the IC50 was 281 nM.
For COc1ccccc1CCN(Cc1ccc(-c2nnc(C(F)F)o2)cc1F)C(=O)N1CCOCC1 [Compound 21557, N-(4-(5-(difluoromethyl)-1,3,4-oxadiazol-2-yl)-2-fluorobenzyl)-N-(2-methoxyphenethyl) morpholine-4-carboxamide], the “HDAC6 selectivity (fold)” value was 41 fold and the IC50 was 244 nM.
CN1CCN(C(=O)N(Cc2ccc(-c3nnc(C(F)(F)F)o3)cc2F)c2ccc(F)c(Cl)c2)CC1 [Compound 21564, N-(3-chloro-4-fluorophenyl)-N-(2-fluoro-4-(5-(trifluoromethyl)-1,3,4-oxadiazol-2-yl)benzyl)-4-methylpiperazine-1-carboxamide] was tested, and the “HDAC6 selectivity (fold)” value was 88 fold and the IC50 was 113 nM.
CN1CCN(C(=O)N(Cc2ccc(-c3nnc(C(F)F)o3)cc2F)c2ccc(F)c(Cl)c2)CC1 [Compound 21565, N-(3-chloro-4-fluorophenyl)-N-(4-(5-(difluoromethyl)-1,3,4-oxadiazol-2-yl)-2-fluorobenzyl)-4-methylpiperazine-1-carboxamide] was tested, and the “HDAC6 selectivity (fold)” value was 625 fold and the IC50 was 16 nM.
